In patent publication US10150755B2, “ASK1 inhibitor compounds and uses thereof” (Seal Rock Therapeutics, Inc., priority 2017, dated 2018):

Molecular target: ASK1 (Homo sapiens (Human), UniProt Q99683)
Assay: ASK1 Kinase Assay (Promega ASK1 Kinase Enzyme System, ADP-Glo)
Assay type: biochemical
Conditions: enzyme 50 nM, ATP 10 μM
Experimental: The ASK1 enzymatic assay was run following Promega ASK1 Kinase Enzyme System (Cat #V3881). The kit provides the protocol, enzymes and all reagents necessary to run an assay. Firstly, the compounds, enzyme, substrate and ATP were diluted in provided assay buffer. The final concentration of the enzyme was 50 nM, substrate (Myelin basic protein) 1 μg/ml and ATP 10 μM. The compound and the enzyme were pre-incubated in a 384 well white solid bottom plate (Greiner, Cat#784075) for 10 minutes. After incubation, the substrate and ATP were added and incubated for further 60 minutes. After 60 minutes, ADP-Glo™ was added and plate was incubated for another 40 minutes. After 40 minutes, Kinase Detection Reagent was added and the plate was incubated for 45 minutes. After 45 minutes, plate was read on Perkin Elmer EnVision using luminescence read (0.5 seconds/well).

ASK1, sequence (Q99683 649-946 limits assumed): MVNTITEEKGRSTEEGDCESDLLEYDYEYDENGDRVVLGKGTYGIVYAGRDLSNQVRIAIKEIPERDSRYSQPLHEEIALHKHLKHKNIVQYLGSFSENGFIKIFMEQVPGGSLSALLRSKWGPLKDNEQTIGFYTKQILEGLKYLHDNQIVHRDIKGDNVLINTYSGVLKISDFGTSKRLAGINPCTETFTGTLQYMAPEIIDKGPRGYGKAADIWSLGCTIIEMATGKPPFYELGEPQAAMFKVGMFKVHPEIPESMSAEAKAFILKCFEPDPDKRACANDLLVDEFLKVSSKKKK

Row | SMILES | IC50
1 | CNC(=O)c1ccc2c(c1)CN(c1cccc(-c3nncn3C3CC3)n1)C2=O [Compound 3, 2-(6-(4-cyclopropyl-4H-1,2,4-triazol-3-yl)pyridin-2-yl)-N-methyl-1-oxoisoindoline-5-carboxamide] | < 200 nM
2 | COCCNC(=O)c1ccc2c(c1)CN(c1cccc(-c3nncn3C3CC3)n1)C2=O [Compound 4, 2-(6-(4-cyclopropyl-4H-1,2,4-triazol-3-yl)pyridin-2-yl)-N-(2-methoxyethyl)-1-oxoisoindoline-5-carboxamide] | < 200 nM
3 | O=C(NCCn1ccnc1)c1ccc2c(c1)CN(c1cccc(-c3nncn3C3CC3)n1)C2=O [Compound 5, N-(2-(1H-imidazol-1-yl)ethyl)-2-(6-(4-cyclopropyl-4H-1,2,4-triazol-3-yl)pyridin-2-yl)-1-oxoisoindoline-5-carboxamide] | < 200 nM
4 | O=C1c2ccc(C(=O)n3cccn3)cc2CN1c1cccc(-c2nncn2C2CC2)n1 [Compound 6, 2-(6-(4-cyclopropyl-4H-1,2,4-triazol-3-yl)pyridin-2-yl)-5-(1H-pyrazole-1-carbonyl)isoindolin-1-one] | < 200 nM
5 | O=C(NC1CCOCC1)c1ccc2c(c1)CN(c1cccc(-c3nncn3C3CC3)n1)C2=O [Compound 9, 2-(6-(4-cyclopropyl-4H-1,2,4-triazol-3-yl)pyridin-2-yl)-1-oxo-N-(tetrahydro-2H-pyran-4-yl)isoindoline-5-carboxamide] | < 200 nM
6 | O=C(c1ccc2c(c1)CN(c1cccc(-c3nncn3C3CC3)n1)C2=O)N1CCCC1 [Compound 18, 2-(6-(4-cyclopropyl-4H-1,2,4-triazol-3-yl)pyridin-2-yl)-5-(pyrrolidine-1-carbonyl)isoindolin-1-one] | < 200 nM
7 | O=C(c1ccc2c(c1)CN(c1cccc(-c3nncn3C3CC3)n1)C2=O)N1CCC1 [Compound 19, 5-(azetidine-1-carbonyl)-2-(6-(4-cyclopropyl-4H-1,2,4-triazol-3-yl)pyridin-2-yl)isoindolin-1-one] | < 200 nM
8 | O=C1CN(C(=O)c2ccc3c(c2)CN(c2cccc(-c4nncn4C4CC4)n2)C3=O)CCN1 [Compound 20, 2-(6-(4-cyclopropyl-4H-1,2,4-triazol-3-yl)pyridin-2-yl)-5-(3-oxopiperazine-1-carbonyl)isoindolin-1-one] | < 200 nM
9 | O=C(c1ccc2c(c1)CN(c1cccc(-c3nncn3C3CC3)n1)C2=O)N1C[C@H]2CC[C@@H](C1)O2 [Compound 21, 5-((1R,5S)-8-oxa-3-azabicyclo[3.2.1]octane-3-carbonyl)-2-(6-(4-cyclopropyl-4H-1,2,4-triazol-3-yl)pyridin-2-yl)isoindolin-1-one] | < 200 nM
10 | CO[C@@H]1CCN(C(=O)c2ccc3c(c2)CN(c2cccc(-c4nncn4C4CC4)n2)C3=O)C1 [Compound 22, (R)-2-(6-(4-cyclopropyl-4H-1,2,4-triazol-3-yl)pyridin-2-yl)-5-(3-methoxypyrrolidine-1-carbonyl)isoindolin-1-one] | < 200 nM
11 | COC(=O)C1CCN(C(=O)c2ccc3c(c2)CN(c2cccc(-c4nncn4C4CC4)n2)C3=O)CC1 [Compound 23, methyl 1-(2-(6-(4-cyclopropyl-4H-1,2,4-triazol-3-yl)pyridin-2-yl)-1-oxoisoindoline-5-carbonyl)piperidine-4-carboxylate] | < 200 nM
12 | O=C(c1ccc2c(c1)CN(c1cccc(-c3nncn3C3CC3)n1)C2=O)N1CCSCC1 [Compound 24, 2-(6-(4-cyclopropyl-4H-1,2,4-triazole-3-yl)pyridin-2-yl)-5-(thiomorpholine-4-carbonyl)isoindolin-1-one] | < 200 nM
13 | CSC1CCN(C(=O)c2ccc3c(c2)CN(c2cccc(-c4nncn4C4CC4)n2)C3=O)CC1 [Compound 25, 2-(6-(4-cyclopropyl-4H-1,2,4-triazol-3-yl)pyridin-2-yl)-5-(4-(methylthio)piperidine-1-carbonyl)isoindolin-1-one] | < 200 nM
14 | O=C(c1cc2c(cc1Cl)C(=O)N(c1cccc(-c3nncn3C3CC3)n1)C2)N1CCOCC1 [Compound 26, 6-chloro-2-(6-(4-cyclopropyl-4H-1,2,4-triazol-3-yl)pyridin-2-yl)-5-(morpholine-4-carbonyl)isoindolin-1-one] | < 200 nM
15 | O=C1c2ccc(-c3cc[nH]n3)cc2CN1c1cccc(-c2nncn2C2CC2)n1 [Compound 28, 2-(6-(4-cyclopropyl-4H-1,2,4-triazol-3-yl)pyridin-2-yl)-5-(1H-pyrazol-3-yl)isoindolin-1-one] | < 200 nM
16 | Cn1nccc1-c1ccc2c(c1)CN(c1cccc(-c3nncn3C3CC3)n1)C2=O [Compound 29, 2-(6-(4-cyclopropyl-4H-1,2,4-triazol-3-yl)pyridin-2-yl)-5-(1-methyl-1H-pyrazol-5-yl)isoindolin-1-one] | < 200 nM
17 | Cn1cnc(-c2ccc3c(c2)CN(c2cccc(-c4nncn4C4CC4)n2)C3=O)c1 [Compound 30, 2-(6-(4-cyclopropyl-4H-1,2,4-triazol-3-yl)pyridin-2-yl)-5-(1-methyl-1H-imidazol-4-yl)isoindolin-1-one] | < 200 nM

Row | SMILES | IC50
18 | Nc1ccc2c(c1)CN(c1cccc(-c3nncn3C3CC3)n1)C2=O [Compound 31, 5-amino-2-(6-(4-cyclopropyl-4H-1,2,4-triazol-3-yl)pyridin-2-yl)isoindolin-1-one] | < 200 nM
19 | O=C1c2ccc(NC(=O)C3(c4ccccc4)CC3)cc2CN1c1cccc(-c2nncn2C2CC2)n1 [Compound 33, N-(2-(6-(4-Cyclopropyl-4H-1,2,4-triazol-3-yl)pyridin-2-yl)-1-oxoisoindolin-5-yl)-1-phenylcyclopropane-1-carboxamide] | 200 to 1000 nM
20 | CCNc1ccc2c(c1)CN(c1cccc(-c3nncn3C3CC3)n1)C2=O [Compound 35, 2-(6-(4-cyclopropyl-4H-1,2,4-triazol-3-yl)pyridin-2-yl)-5-(ethylamino)isoindolin-1-one] | < 200 nM
21 | Cn1cncc1-c1ccc2c(c1)C(=O)N(c1cccc(-c3nncn3C3CC3)n1)C2 [Compound 36, 2-(6-(4-cyclopropyl-4H-1,2,4-triazol-3-yl)pyridin-2-yl)-6-(1-methyl-1H-imidazol-5-yl)isoindolin-1-one] | < 200 nM
22 | O=C1c2cc(-n3ccnc3)ccc2CN1c1cccc(-c2nncn2C2CC2)n1 [Compound 37, 2-(6-(4-cyclopropyl-4H-1,2,4-triazol-3-yl)pyridin-2-yl)-6-(1H-imidazol-1-yl)isoindolin-1-one] | < 200 nM
23 | O=C1c2cc(-n3cnc4ccccc43)ccc2CN1c1cccc(-c2nncn2C2CC2)n1 [Compound 38, 6-(1H-Benzo[d]imidazol-1-yl)-2-(6-(4-cyclopropyl-4H-1,2,4-triazol-3-yl)pyridin-2-yl)isoindolin-1-one] | < 200 nM
24 | Cn1ccc(-c2ccc3c(c2)C(=O)N(c2cccc(-c4nncn4C4CC4)n2)C3)n1 [Compound 39, 2-(6-(4-cyclopropyl-4H-1,2,4-triazol-3-yl)pyridin-2-yl)-6-(1-methyl-1H-pyrazol-3-yl)isoindolin-1-one] | < 200 nM
25 | Cc1ccc(-c2ccc3c(c2)C(=O)N(c2cccc(-c4nncn4C4CC4)n2)C3)cn1 [Compound 42, 2-(6-(4-cyclopropyl-4H-1,2,4-triazol-3-yl)pyridin-2-yl)-6-(6-methylpyridin-3-yl)isoindolin-1-one] | < 200 nM
26 | COc1ccc(-c2ccc3c(c2)C(=O)N(c2cccc(-c4nncn4C4CC4)n2)C3)cn1 [Compound 45, 2-(6-(4-cyclopropyl-4H-1,2,4-triazol-3-yl)pyridin-2-yl)-6-(6-methoxypyridin-3-yl)isoindolin-1-one] | < 200 nM
27 | O=C1c2cc(-c3cnn(C4CC4)c3)ccc2CN1c1cccc(-c2nncn2C2CC2)n1 [Compound 47, 6-(1-cyclopropyl-1H-pyrazol-4-yl)-2-(6-(4-cyclopropyl-4H-1,2,4-triazol-3-yl)pyridin-2-yl)isoindolin-1-one] | < 200 nM
28 | O=C1c2cc(-c3cnccc3F)ccc2CN1c1cccc(-c2nncn2C2CC2)n1 [Compound 48, 2-(6-(4-cyclopropyl-4H-1,2,4-triazol-3-yl)pyridin-2-yl)-6-(4-fluoropyridin-3-yl)isoindolin-1-one] | < 200 nM
29 | O=C1c2cc(-c3cnccc3Cl)ccc2CN1c1cccc(-c2nncn2C2CC2)n1 [Compound 49, 6-(4-chloropyridin-3-yl)-2-(6-(4-cyclopropyl-4H-1,2,4-triazol-3-yl)pyridin-2-yl)isoindolin-1-one] | < 200 nM
30 | O=C1c2cc(-c3ccncc3)ccc2CN1c1cccc(-c2nncn2C2CC2)n1 [Compound 50, 2-(6-(4-cyclopropyl-4H-1,2,4-triazol-3-yl)pyridin-2-yl)-6-(pyridin-4-yl)isoindolin-1-one] | < 200 nM
31 | Cc1ncc(-c2ccc3c(c2)C(=O)N(c2cccc(-c4nncn4C4CC4)n2)C3)s1 [Compound 51, 2-(6-(4-cyclopropyl-4H-1,2,4-triazol-3-yl)pyridin-2-yl)-6-(2-methylthiazol-5-yl)isoindolin-1-one] | < 200 nM
32 | Cc1ncccc1-c1ccc2c(c1)C(=O)N(c1cccc(-c3nncn3C3CC3)n1)C2 [Compound 52, 2-(6-(4-cyclopropyl-4H-1,2,4-triazol-3-yl)pyridin-2-yl)-6-(2-methylpyridin-3-yl)isoindolin-1-one] | < 200 nM
33 | O=C1c2cc(-c3cccnc3F)ccc2CN1c1cccc(-c2nncn2C2CC2)n1 [Compound 53, 2-(6-(4-cyclopropyl-4H-1,2,4-triazol-3-yl)pyridin-2-yl)-6-(2-fluoropyridin-3-yl)isoindolin-1-one] | < 200 nM
34 | Cc1cncc(-c2ccc3c(c2)C(=O)N(c2cccc(-c4nncn4C4CC4)n2)C3)c1 [Compound 54, 2-(6-(4-cyclopropyl-4H-1,2,4-triazol-3-yl)pyridin-2-yl)-6-(5-methylpyridin-3-yl)isoindolin-1-one] | < 200 nM
